Measurements taken from paper PMC8157947, “Peptidic boronic acids are potent cell-permeable inhibitors of the malaria parasite egress serine protease SUB1” (Proceedings of the National Academy of Sciences of the …, 2021).

Legend:
[1] = tested on: P. falciparum schizonts expressing EXP2-mNeonGreen; assay: Time-lapse video microscopy of egress after compound washout; type: cell-based, Plasmodium falciparum; details: 10 μM, 30 min monitoring after washout
[2] = target: T1, recombinant PfSUB1 (rPfSUB1) (Plasmodium falciparum, UniProt Q8I0V0); assay: rPfSUB1 fluorogenic peptide substrate cleavage inhibition assay; type: biochemical; details: versus mammalian trypsin, chymotrypsin and elastase
T1 construct: Chymotrypsin-treated rPfSUB1 (expressed and purified as described previously); made in house
T1 sequence (Q8I0V0 218-688): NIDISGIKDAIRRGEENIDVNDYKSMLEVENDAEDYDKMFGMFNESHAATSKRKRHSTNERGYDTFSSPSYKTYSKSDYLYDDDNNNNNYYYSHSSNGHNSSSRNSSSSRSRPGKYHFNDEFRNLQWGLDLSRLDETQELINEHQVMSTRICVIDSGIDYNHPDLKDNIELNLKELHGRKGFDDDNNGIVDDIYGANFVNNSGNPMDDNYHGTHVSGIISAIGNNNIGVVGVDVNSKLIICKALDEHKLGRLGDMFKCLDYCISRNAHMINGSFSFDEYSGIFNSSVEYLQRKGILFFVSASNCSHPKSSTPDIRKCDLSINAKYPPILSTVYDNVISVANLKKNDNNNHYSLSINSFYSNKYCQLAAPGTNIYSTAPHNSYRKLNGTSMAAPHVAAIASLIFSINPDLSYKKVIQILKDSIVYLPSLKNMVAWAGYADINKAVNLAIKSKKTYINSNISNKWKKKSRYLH

[3] = tested on: P. falciparum 3D7 schizonts; assay: Short-term egress/invasion assay, ring formation by flow cytometry; type: cell-based, Plasmodium falciparum
Experimental: For this, P. falciparum cultures containing synchronous, highly mature schizonts were supplemented with compounds 3b, 3e, 3i, and 3j at a range of dilutions, then allowed to undergo egress and invasion for just 4 h in the continued presence of the compounds, before assessing formation of newly invaded “ring” stage parasites by flow cytometry.
(§1) Short-term egress, invasion, and washout assays were performed essentially as described previously ([27], [28], [42]). Briefly, highly synchronous mature Percoll-enriched schizonts with or without added fresh RBCs (∼5% parasitaemia final) were incubated with compounds under test or vehicle only (DMSO, 1% vol/vol). For washout assays, schizonts were treated with C2 or various concentrations of inhibitor 3j for 1 to 4 h, then washed extensively (at least four times) prior to addition to fresh RBCs where required. After incubation at 37 °C for just 1 to 4 h (or overnight for invasion assays) to allow schizont rupture, cells were pelleted. Clarified culture supernatants were assessed for extent of hemoglobin release (a measure of schizont rupture) by absorption spectroscopy at 415 nm as described previously ([28]) or analyzed by Western blot using antibodies against SERA5 ([7], [11]). To quantify generation of new rings, samples of the cultures were fixed with 4% paraformaldehyde/0.02% glutaraldehyde and stained with SYBR Green I (Life Technologies) and then analyzed by flow cytometry on a BD FACSVerse using BD FACSuite software. Data were analyzed using FlowJo software. All cultures were also routinely analyzed by microscopic examination of Giemsa-stained thin films to visually assess parasite morphology.

[4] = tested on: PfSUB1-mediated proteolytic processing of SERA5; assay: Western blot of SERA5 processing after washout; type: cell-based, Plasmodium falciparum; details: 4 h pretreatment then washout
Description: To seek unambiguous confirmation that PfSUB1 is the intracellular target of compound 3j, we examined the effects of the compound on the PfSUB1-mediated proteolytic processing of the established endogenous PfSUB1 substrate SERA5, an abundant parasite PV protein that only becomes accessible to cleavage upon discharge of PfSUB1 into the PV in the minutes leading up to egress and is then released in a processed form into culture supernatants ([6], [11], [12]). […] It was concluded that compound 3j prevents egress and parasite proliferation through direct inhibition of intracellular PfSUB1.
Short-term egress, invasion, and washout assays were performed essentially as described previously ([27], [28], [42]). […] Clarified culture supernatants were assessed for extent of hemoglobin release (a measure of schizont rupture) by absorption spectroscopy at 415 nm as described previously ([28]) or analyzed by Western blot using antibodies against SERA5 ([7], [11]). To quantify generation of new rings, samples of the cultures were fixed with 4% paraformaldehyde/0.02% glutaraldehyde and stained with SYBR Green I (Life Technologies) and then analyzed by flow cytometry on a BD FACSVerse using BD FACSuite software. Data were analyzed using FlowJo software. All cultures were also routinely analyzed by microscopic examination of Giemsa-stained thin films to visually assess parasite morphology.

P. falciparum schizonts = assay: Ring formation after pretreatment of schizonts and washout; type: cell-based, Plasmodium falciparum; details: pretreated schizonts washed, fresh RBCs, assessed at 24 h; 3j 10 μM, C2 1 μM
Experimental: as §1

elastase = assay: Elastase inhibition assay (MeOSuc-AAPV-AMC cleavage); type: biochemical; details: porcine elastase; estimated
Experimental: Assays for assessing inhibition of elastase a c t i vit y (from porcine pancreas; Sigm a-Aldrich E7885) were based on c leavage of the fluorogenic peptide substrate MeOSuc-AAPV-AMC (Sigm a- Aldrich […]
324740). Elastase was dissolved in 1 m M HCl, 2 m M CaCl2 to produce a stock solutio n of 1 mg/ml […]
(38.6 µM). F or inhibition as says , 100 µl of 1 µg/m l (38.6 nM) elastase in 25 m M T ris -HCl pH 8.2, […]
15 m M CaC l2 was d ispense d into we lls of whit e 9 6- we ll m icrowe ll p lates (Nunc), and pre- incubated […]
for 5 m in wi th com pound 3j at concentr ations ranging from 0-20 µM before addition of substrate […]
(10 µM f inal). F luorescence increase was m onitored continuousl y with tim e as above. PMSF was used as a positive inh ib itor control as above. All m easurem ents were perform ed in duplicate.

CC(=O)NC(C(=O)NC(C(=O)NCC(=O)NC(C)B(O)O)C(C)C)C1CCCC1 (stereo not shown) [3j]
egress following washout [1]: no egress occurred over the course of 30 min
selectivity for PfSUB1 [2]: > 100 fold
schizont phenotype in Giemsa-stained thin films ([3]; 10 μM, 4 h incubation): arrest of unruptured schizonts with no ring formation
EC50 ([3]; Plasmodium falciparum, mature 3D7 schizonts with RBCs, 4 h, flow cytometry): 2500 ± 300 nM
SERA5 proteolytic processing [4]: prevented proteolytic processing and release of SERA5
ring production after washout (P. falciparum schizonts): No rings were produced
elastase IC50 relative to that for PfSUB1 (elastase): > 100 fold
